Laboratory results from the OligoGym collection.
HELM strings list units from the 5' end as sugar, base in round brackets, then linkage (d deoxyribose, r ribose, m 2'-O-methyl, p phosphodiester). Strings are as the collection lists them; they lack the last nucleoside at the 3' end of the tested compound. [moe] = 2'-O-(2-methoxyethyl) (MOE); [sp] = phosphorothioate linkage; [m5C] = 5-methylcytosine

Molecular target: UBE3A-ATS
Assay: mouse, dose not given
Conditions: ASO

Substance	3 h FOB score [score 0-7]
RNA1{[moe]([m5C])[sp].[moe](T)p.[moe](G)p.[moe](A)p.d(T)[sp].d([m5C])[sp].d(A)[sp].d([m5C])[sp].d(A)[sp].d(T)[sp].d(T)[sp].d(A)[sp].d([m5C])[sp].d([m5C])[sp].[moe]([m5C])p.[moe](A)p.[moe](T)p.[moe]([m5C])[sp].[moe]([m5C])}$$$$ (last 3' nucleoside missing)	0
RNA1{[moe]([m5C])[sp].[moe](T)p.[moe](G)p.[moe](G)p.[moe](T)p.d(A)[sp].d(G)[sp].d(G)[sp].d(A)[sp].d(T)[sp].d([m5C])[sp].d(T)[sp].d(A)[sp].d(T)[sp].d(G)[sp].[moe](G)p.[moe]([m5C])p.[moe](A)[sp].[moe](G)}$$$$ (last 3' nucleoside missing)	2.3
RNA1{[moe]([m5C])[sp].[moe](T)p.[moe](G)p.[moe](T)p.[moe](A)p.d(A)[sp].d(G)[sp].d(G)[sp].d(T)[sp].d(G)[sp].d(A)[sp].d(T)[sp].d(A)[sp].d(T)[sp].d([m5C])[sp].[moe](T)p.[moe](A)p.[moe](T)[sp].[moe](A)}$$$$ (last 3' nucleoside missing)	3
RNA1{[moe]([m5C])[sp].[moe](T)p.[moe](G)p.[moe](T)p.[moe](A)p.d(A)[sp].d(G)[sp].d(T)[sp].d(A)[sp].d(T)[sp].d(A)[sp].d(G)[sp].d(A)[sp].d(T)[sp].d(G)[sp].[moe]([m5C])p.[moe]([m5C])p.[moe](T)[sp].[moe]([m5C])}$$$$ (last 3' nucleoside missing)	3.2
RNA1{[moe]([m5C])[sp].[moe](T)p.[moe](G)p.[moe](T)p.[moe](A)p.d(T)[sp].d(A)[sp].d(G)[sp].d(T)[sp].d(T)[sp].d(T)[sp].d(A)[sp].d([m5C])[sp].d([m5C])[sp].d([m5C])[sp].[moe](A)p.[moe](G)p.[moe](G)[sp].[moe]([m5C])}$$$$ (last 3' nucleoside missing)	0
RNA1{[moe]([m5C])[sp].[moe](T)p.[moe](G)p.[moe]([m5C])p.[moe](T)p.[moe](T)p.d([m5C])[sp].d(A)[sp].d([m5C])[sp].d([m5C])[sp].d(A)[sp].d(T)[sp].d(T)[sp].d(T)[sp].d(T)[sp].d(G)[sp].[moe](A)p.[moe]([m5C])[sp].[moe]([m5C])}$$$$ (last 3' nucleoside missing)	0
RNA1{[moe]([m5C])[sp].[moe](T)p.[moe](G)p.[moe]([m5C])p.[moe](T)p.[moe]([m5C])p.d(A)[sp].d(G)[sp].d(T)[sp].d(T)[sp].d(A)[sp].d(G)[sp].d(G)[sp].d(T)[sp].d(T)[sp].d(A)[sp].[moe](G)p.[moe](T)[sp].[moe](G)}$$$$ (last 3' nucleoside missing)	3
RNA1{[moe]([m5C])[sp].[moe](T)p.[moe](G)p.[moe]([m5C])p.[moe](T)p.d(T)[sp].d(A)[sp].d(T)[sp].d(G)[sp].d(T)[sp].d(A)[sp].d(G)[sp].d([m5C])[sp].d(T)[sp].d([m5C])[sp].[moe](A)p.[moe](G)p.[moe]([m5C])[sp].[moe](T)}$$$$ (last 3' nucleoside missing)	1
RNA1{[moe]([m5C])[sp].[moe](T)p.[moe](G)p.[moe]([m5C])p.[moe](T)p.d(T)[sp].d([m5C])[sp].d(A)[sp].d([m5C])[sp].d([m5C])[sp].d(A)[sp].d(T)[sp].d(T)[sp].d(T)[sp].d(T)[sp].[moe](G)p.[moe](A)p.[moe]([m5C])[sp].[moe]([m5C])}$$$$ (last 3' nucleoside missing)	1.3
RNA1{[moe]([m5C])[sp].[moe](T)p.[moe](G)p.[moe]([m5C])p.[moe](T)p.d([m5C])[sp].d(A)[sp].d(G)[sp].d(T)[sp].d(T)[sp].d(A)[sp].d(G)[sp].d(G)[sp].d(T)[sp].d(T)[sp].[moe](A)p.[moe](G)p.[moe](T)[sp].[moe](G)}$$$$ (last 3' nucleoside missing)	3.3
RNA1{[moe]([m5C])[sp].[moe](T)p.[moe](G)p.[moe]([m5C])p.d(T)[sp].d(T)[sp].d([m5C])[sp].d(A)[sp].d([m5C])[sp].d([m5C])[sp].d(A)[sp].d(T)[sp].d(T)[sp].d(T)[sp].[moe](T)p.[moe](G)p.[moe](A)p.[moe]([m5C])[sp].[moe]([m5C])}$$$$ (last 3' nucleoside missing)	0
RNA1{[moe]([m5C])[sp].[moe](T)p.[moe](G)p.[moe]([m5C])p.d(T)[sp].d([m5C])[sp].d(A)[sp].d(G)[sp].d(T)[sp].d(T)[sp].d(A)[sp].d(G)[sp].d(G)[sp].d(T)[sp].[moe](T)p.[moe](A)p.[moe](G)p.[moe](T)[sp].[moe](G)}$$$$ (last 3' nucleoside missing)	4
RNA1{[moe]([m5C])[sp].[moe](T)p.[moe](T)p.[moe](A)p.[moe](A)p.d(A)[sp].d(T)[sp].d(A)[sp].d(G)[sp].d(T)[sp].d(A)[sp].d(G)[sp].d(G)[sp].d(A)[sp].d(A)[sp].[moe](A)p.[moe](G)p.[moe]([m5C])[sp].[moe]([m5C])}$$$$ (last 3' nucleoside missing)	4.8
RNA1{[moe]([m5C])[sp].[moe](T)p.[moe](T)p.[moe](A)p.[moe](G)p.d(A)[sp].d(T)[sp].d(G)[sp].d(T)[sp].d(G)[sp].d(T)[sp].d(T)[sp].d(T)[sp].d(A)[sp].d(T)[sp].[moe]([m5C])p.[moe]([m5C])p.[moe](A)[sp].[moe](A)}$$$$ (last 3' nucleoside missing)	1.2
RNA1{[moe]([m5C])[sp].[moe](T)p.[moe](T)p.[moe](A)p.[moe](G)p.d(G)[sp].d([m5C])[sp].d(A)[sp].d(A)[sp].d(T)[sp].d(G)[sp].d(G)[sp].d(A)[sp].d([m5C])[sp].d(T)[sp].[moe](T)p.[moe](A)p.[moe](G)[sp].[moe](T)}$$$$ (last 3' nucleoside missing)	1
RNA1{[moe]([m5C])[sp].[moe](T)p.[moe](T)p.[moe](A)p.[moe](T)p.d(G)[sp].d(T)[sp].d(A)[sp].d(G)[sp].d([m5C])[sp].d(T)[sp].d([m5C])[sp].d(A)[sp].d(G)[sp].d([m5C])[sp].[moe](T)p.[moe]([m5C])p.[moe](A)[sp].[moe](A)}$$$$ (last 3' nucleoside missing)	2
RNA1{[moe]([m5C])[sp].[moe](T)p.[moe](T)p.[moe](G)p.[moe](A)p.d(T)[sp].d(G)[sp].d(G)[sp].d([m5C])[sp].d(T)[sp].d(G)[sp].d(T)[sp].d(A)[sp].d(G)[sp].d([m5C])[sp].[moe](T)p.[moe](T)p.[moe](G)[sp].[moe](G)}$$$$ (last 3' nucleoside missing)	5
RNA1{[moe]([m5C])[sp].[moe](T)p.[moe](T)p.[moe](T)p.[moe](A)p.d(G)[sp].d(T)[sp].d(A)[sp].d(T)[sp].d(G)[sp].d(T)[sp].d([m5C])[sp].d(G)[sp].d(A)[sp].d(G)[sp].[moe](A)p.[moe](A)p.[moe]([m5C])[sp].[moe](T)}$$$$ (last 3' nucleoside missing)	5
RNA1{[moe]([m5C])[sp].[moe](T)p.[moe](T)p.[moe](T)p.[moe](A)p.d(T)[sp].d(A)[sp].d([m5C])[sp].d(T)[sp].d(T)[sp].d(T)[sp].d(A)[sp].d([m5C])[sp].d([m5C])[sp].d([m5C])[sp].[moe](A)p.[moe](A)p.[moe]([m5C])[sp].[moe](T)}$$$$ (last 3' nucleoside missing)	0
RNA1{[moe]([m5C])[sp].[moe](T)p.[moe](T)p.[moe](T)p.[moe]([m5C])p.d(A)[sp].d(T)[sp].d([m5C])[sp].d(A)[sp].d(G)[sp].d(T)[sp].d(T)[sp].d(A)[sp].d(G)[sp].d(T)[sp].[moe]([m5C])p.[moe](A)p.[moe](G)[sp].[moe](G)}$$$$ (last 3' nucleoside missing)	3.5
RNA1{[moe]([m5C])[sp].[moe](T)p.[moe](T)p.[moe]([m5C])[sp].d(A)[sp].d([m5C])[sp].d([m5C])[sp].d(A)[sp].d(T)[sp].d(T)[sp].d(T)[sp].d(T)[sp].[moe](G)p.[moe](A)p.[moe]([m5C])p.[moe]([m5C])[sp].[moe](T)}$$$$ (last 3' nucleoside missing)	0
RNA1{[moe]([m5C])[sp].[moe](T)p.[moe](T)p.[moe]([m5C])p.[moe](A)p.[moe]([m5C])p.d([m5C])[sp].d(A)[sp].d(T)[sp].d(T)[sp].d(T)[sp].d(T)[sp].d(G)[sp].d(A)[sp].d([m5C])[sp].d([m5C])[sp].[moe](T)p.[moe](T)[sp].[moe]([m5C])}$$$$ (last 3' nucleoside missing)	1
RNA1{[moe]([m5C])[sp].[moe](T)p.[moe](T)p.[moe]([m5C])p.[moe](A)p.d(A)[sp].d([m5C])[sp].d(T)[sp].d(A)[sp].d(A)[sp].d([m5C])[sp].d(A)[sp].d(G)[sp].d(T)[sp].d(A)[sp].[moe](T)p.[moe]([m5C])p.[moe](T)[sp].[moe](T)}$$$$ (last 3' nucleoside missing)	0
RNA1{[moe]([m5C])[sp].[moe](T)p.[moe](T)p.[moe]([m5C])p.[moe](A)p.d(T)[sp].d(T)[sp].d(A)[sp].d(T)[sp].d(T)[sp].d([m5C])[sp].d(T)[sp].d([m5C])[sp].d(T)[sp].d(A)[sp].[moe](G)p.[moe](T)p.[moe](G)[sp].[moe]([m5C])}$$$$ (last 3' nucleoside missing)	0
RNA1{[moe]([m5C])[sp].[moe](T)p.[moe](T)p.[moe]([m5C])p.[moe](A)p.d([m5C])[sp].d([m5C])[sp].d(A)[sp].d(T)[sp].d(T)[sp].d(T)[sp].d(T)[sp].d(G)[sp].d(A)[sp].d([m5C])[sp].[moe]([m5C])p.[moe](T)p.[moe](T)[sp].[moe]([m5C])}$$$$ (last 3' nucleoside missing)	1
RNA1{[moe]([m5C])[sp].[moe](T)p.[moe](T)p.[moe]([m5C])p.d(A)[sp].d([m5C])[sp].d([m5C])[sp].d(A)[sp].d(T)[sp].d(T)[sp].d(T)[sp].d(T)[sp].d(G)[sp].d(A)[sp].[moe]([m5C])p.[moe]([m5C])p.[moe](T)p.[moe](T)[sp].[moe]([m5C])}$$$$ (last 3' nucleoside missing)	1
